In patent US20080076824A1, “Compounds That Inhibit Replication Of Human Immunodeficiency Virus” (priority 2004, published 2008):
Where “and” joins values, the source holds several entries; their conditions need not be identical. Equal values may be shown once. Entries after “also recorded” stand apart in the source; their conditions may differ. Read-outs that look alike come from different tables or passages of the source. One block for each compound: values may come before it. Non-standard residues stand in square brackets, D forms with d. Residues, ends and D or L forms follow the SMILES beside them. Sar = CNCC(=O)O

How the values were obtained:
HIV-1 (IIIB) [1] = experiment: microbe, parasite or virus in culture; settings: Human immunodeficiency virus 1, IIIB, CCRF-CEM
HIV-1 (IIIB) [2] = settings: for EC50: CEM cell cultures
HIV (SF2 virus) [3] = experiment: HIV infectivity assay, SF2-infected H9 cells, visible syncytia; assay type: cell-based; settings: for Visible syncytia: H9/SF2, day 11
HIV (SF2 virus) [4] = experiment: HIV infectivity assay, SF2-infected H9 cells, reverse transcriptase (RT) quantification in supernatant; assay type: cell-based; settings: for inhibition of HIV replication, reverse transcriptase (RT) activity: cultures containing boiled fetal calf serum
HIV (SF2 virus) [5] = experiment: HIV infectivity assay, SF2-infected H9 cells, p24 quantification; assay type: cell-based; settings: for OD1: replicates (1)-(3)
Method: The remaining wells were filled with sterile distilled water. The cell culture plates were incubated at 37° C. and 5% CO2. After four days the medium was changed, after eight days the medium was changed and the cells were collected. After 11 days, the infection was stopped, the cells were viewed in a 10× magnification microscope and 650 μl of each cell supernatant was collected and frozen at −80° C. for further analysis. After five more days, the supernatants were thawed and used in a conventional reverse transcriptase (RT) activity assay (e.g., Roche AMPLICOR MONITOR™) or a p24 quantification assay (e.g., Abbott Laboratories, Chicago). (See U.S. Pat. No. 6,258,932 and U.S. patent application Ser. No. 10/235,158, both of which are hereby expressly incorporated by reference in its entireties).
[…] The cells in the samples were counted and then centrifuged. The cells were then resuspended in 10 ml of RPMI 1640 (containing fetal calf serum) and either […] Metabolite X or 100 μM GPG-NH2. Uninfected control and untreated control samples were also included in the experiment. The samples were then incubated overnight at 37° C. at 5% CO2.
Then, the amount of p24 in the samples was analysed using a conventional p24 detection assay (see U.S. Pat. No. 6,258,932).
Three replicate samples (“replicates”) of uninfected samples and untreated samples were also included in the experiment as controls. The inhibition of HIV replication was monitored by quantifying the levels of p24 using a conventional detection kit.
Three replicates of unninfected samples and untreated samples were also included in the experiment as controls.

HIV-1 (IIIB) [6] = experiment: microbe, parasite or virus in culture; settings: Human immunodeficiency virus 1, IIIB, MT4, read-out: EC50 (MT-4) HIV-1 (IIIB)
Method: (§1) MT-4, C8166 or CEM cells (4 to 5×10^5 cells per ml) were suspended in fresh culture medium (RPMI-1640 medium supplemented with 10% fetal bovine serum (FBS) (BioWittaker Europe, Verviers, Belgium), 2 mM L-glutamine and […] NaHCO3). Subsequently, the cells were infected with HIV-1 (IIIB) or HIV-2(ROD) at ˜100 CCID50 (1 CCID50 being the dose infective for 50% of the cell cultures) per ml of cell suspension. Then, 100 μl of the infected cell suspension were transferred to 96-well microplate wells, mixed with 100 μl of the appropriate (5-fold) dilutions of the test compounds and further incubated at 37° C. After 4 to 5 days, giant cell formation was recorded microscopically in the CEM and C8166 cell cultures. The MT-4 cell cultures were treated with trypan blue and the number of viable cells was determined.

HIV-2(ROD) = experiment: microbe, parasite or virus in culture; settings: Human immunodeficiency virus 2, MT4, read-out: EC50 (MT-4) HIV-2 (ROD), Table 19
Method: as §1

HIV-2 (ROD) = experiment: microbe, parasite or virus in culture; assay type: cell-based; settings: 2 (ROD)
Method: Human T-lymphocytic CEM cells (4.5×10^5 cells per ml) were suspended in fresh cell culture medium and infected with HIV-1 (IIIB and NL4.3) or HIV-2 (ROD or EHO) at 100 CCID50 (1 CCID50 being the virus dose infective for 50% of the cell cultures) per ml of cell suspension. Then, 100 μl of the infected cell suspension were transferred to microplate wells, mixed with 100 μl of appropriate (freshly prepared) dilutions of the test compounds (i.e., at final concentrations of […]), and were further incubated at 37° C. After 4 to 5 days, giant cell formation was recorded microscopically in the CEM cell cultures. […] (See Table 1).
as §1

HIV-1 (NL4.3) = settings: read-out: EC50 HIV-1 NL3.4; CEM cell cultures, syncytia formation
Method: (§2) Human T-lymphocytic CEM cells (4.5×10^5 cells per ml) were suspended in fresh cell culture medium and infected with HIV-1 (IIIB and NL4.3) or HIV-2 (ROD or EHO) at 100 CCID50 (1 CCID50 being the virus dose infective for 50% of the cell cultures) per ml of cell suspension. Then, 100 μl of the infected cell suspension were transferred to microplate wells, mixed with 100 μl of appropriate (freshly prepared) dilutions of the test compounds (i.e., at final concentrations of […]), and were further incubated at 37° C. After 4 to 5 days, giant cell formation was recorded microscopically in the CEM cell cultures.

HIV-2 (EHO) = tested on: HIV-2 (EHO)
Method: as §2

in vitro = settings: human
[7] = read-out: EC50 against HIV-1(IIIB), CEM cell cultures, Table 2
[8] = read-out: EC50 against HIV-1(IIIB), Table 2
[9] = read-out: EC50 HIV-1 IIIB, syncytia formation, Table 1

EC50 (HIV-1 (IIIB) [1]; [7]): > 500 µM
Structure (SMILES): CSCC[C@H](N)C(N)=O [L-Methioninamide]

EC50 (HIV-1 (IIIB) [1]; [7]): > 500 µM
Structure (SMILES): NC(=O)[C@@H](N)Cc1ccccc1 [L-Phenylalaninamide]

EC50 (HIV-1 (IIIB) [1]; [7]): > 1000 µM
Structure (SMILES): NC(=O)[C@@H]1CCCN1 [L-Prolinamide]

EC50 (HIV-1 (IIIB) [1]; [7]): > 500 µM
Structure (SMILES): O=C(O)[C@@H]1CCCN1 [L-Proline]

EC50 (HIV-1 (IIIB) [1]; [7]): > 1000 µM
Structure (SMILES): NC(=O)[C@@H](N)CO [L-Serinamide]

EC50 (HIV-1 (IIIB) [1]; [7]): > 500 µM
Structure (SMILES): C[C@@H](O)[C@H](N)C(N)=O [L-Threoninamide]

EC50 (HIV-1 (IIIB) [1]; [7]): > 200 µM
Structure (SMILES): NC(=O)[C@@H](N)Cc1c[nH]c2ccccc12 [L-Tryptophanamide]

EC50 (HIV-1 (IIIB) [1]; [7]): > 500 µM
Structure (SMILES): NC(=O)[C@@H](N)Cc1ccc(O)cc1 [L-Tyrosinamide]

EC50 (HIV-1 (IIIB) [1]; [7]): > 500 µM
Structure (SMILES): CC(C)[C@H](N)C(N)=O [L-Valinamide]

EC50 (HIV-1 (IIIB) [6]): > 500 µM | EC50 (HIV-2(ROD)): > 500 µM | EC50 (HIV-1 (IIIB) [1]; read-out: EC50 (CEM) HIV-1 (IIIB), Table 19): > 500 µM
Structure (SMILES): NC(=O)C(N)=O [Oxamide, Oxamide (H2NCOCONH2), reference compound]

EC50 (HIV-1 (IIIB) [1]; [7]): > 1000 µM
Structure (SMILES): CNCC(N)=O [Sarcosinamide]

The remaining lines, values behind:

Structure (SMILES): N=C(N)NCCC[C@H](N)C(N)=O [L-Argininamide]
EC50 (HIV-1 (IIIB) [1]; [7]): > 500 µM

Structure (SMILES): NC(=O)C[C@H](N)C(N)=O [L-Asparaginamide, reference compound]
EC50 (HIV-1 (IIIB) [2]; [8]): > 1000 µM | EC50 (HIV-1 (IIIB) [1]; [7]): > 500 µM

Structure (SMILES): CC[C@H](C)[C@H](N)C(N)=O [L-Isoleucinamide]
EC50 (HIV-1 (IIIB) [1]; [7]): > 500 µM

Structure (SMILES): CC(C)C[C@H](N)C(N)=O [L-Leucinamide]
EC50 (HIV-1 (IIIB) [1]; [7]): > 500 µM

Structure (SMILES): CC(C)C[C@H](N)C(=O)O [L-Leucine]
EC50 (HIV-1 (IIIB) [1]; [7]): > 500 µM

Structure (SMILES): NCCCC[C@H](N)C(N)=O [L-Lysinamide]
EC50 (HIV-1 (IIIB) [1]; read-out: EC50 against HIV-1(IIIB)): > 500 µM

Structure (SMILES): CC(C)[C@H](N)C(=O)Nc1ccc2ccccc2c1 [L-Val β-naphthylamide, reference compound]
EC50 (HIV-1 (IIIB) [2]; [8]): > 100 µM

Structure (SMILES): NC(=O)C(N)O (stereo not drawn) [Met-X, α-hydroxyglycinamide]
Visible syncytia (HIV (SF2 virus) [3]; 100 μM in boiled RPMI++): negative | Visible syncytia (HIV (SF2 virus) [3]; 100 μM in normal RPMI++ (10% FCS)): negative | Visible syncytia (HIV (SF2 virus) [3]; 500 μM in boiled RPMI++): negative | Visible syncytia (HIV (SF2 virus) [3]; 500 μM in normal RPMI++ (10% FCS)): negative | inhibition of replication and/or propagation of HIV by visual inspection (HIV (SF2 virus) [3]; boiled fetal calf serum): effectively inhibited | reverse transcriptase activity in treated samples (HIV (SF2 virus) [4]; 100 μM, fetal calf serum): no reverse transcriptase activity | inhibition of HIV replication, reverse transcriptase (RT) activity (HIV (SF2 virus) [4]): inhibited the replication of HIV | inhibition of HIV replication, reverse transcriptase (RT) activity (HIV (SF2 virus) [4]; listed as Metabolite X): effectively inhibited replication HIV | concentration at which inhibition of HIV replication is virtually complete (HIV (SF2 virus) [4]; fetal bovine serum, 10 days): ≥ 15.6 µM | OD1 (HIV (SF2 virus) [5]; 50 μM, fetal calf serum): 1.105 and 1.895 and 2.351 | conc p24 (HIV (SF2 virus) [5]; 50 μM, human serum): 457.33 ng/mL and 427.85 ng/mL and 261.05 ng/mL | OD1 (HIV (SF2 virus) [5]; 100 μM, fetal calf serum): 0.193 and 0.081 and 0.144 | inhibition of HIV replication, p24 (HIV (SF2 virus) [5]; 100 μM, presence of fetal calf serum): effectively inhibited HIV replication | inhibition of HIV, accumulation of p24, compared with reference (HIV (SF2 virus) [5]; fetal calf serum): as effectively as GPG-NH2; also recorded: as effectively as G-NH2 | inhibition of HIV replication, accumulation of p24 (HIV (SF2 virus) [5]; human serum): inhibited HIV replication in human serum | inhibition of HIV replication, accumulation of p24 (HIV (SF2 virus) [5]; human serum, listed as Metabolite X): effective inhibitors of HIV replication in human serum | inhibition of replication of HIV (HIV-1 (IIIB) [2]; boiled fetal bovine serum or human serum samples, results the experiments will show): efficiently inhibits replication of HIV

Structure (SMILES): NC(=O)CC[C@H](N)C(=O)N1CCC[C@H]1C(=O)NCC(N)=O [Q-PG-NH2, glutaminylprolylglycinamide] (H-Gln-Pro-Gly-NH2)
EC50 (HIV-2 (ROD)): 89 µM | EC50 (HIV-1 (NL4.3)): 265 µM | EC50 (HIV-2 (EHO)): 82 µM | EC50 (HIV-1 (IIIB) [2]; [9]): 86 µM | EC50 (in vitro): > 1500 µM

Structure (SMILES): CNCC(=O)N1CCC[C@H]1C(=O)NCC(N)=O [SAR-PG-NH2, sarcosinylprolylglycinamide] (H-[Sar]-Pro-Gly-NH2)
EC50 (HIV-2 (ROD)): 35 ± 9.8 µM | EC50 (HIV-1 (NL4.3)): 49 µM | EC50 (HIV-2 (EHO)): 56 µM | EC50 (HIV-1 (IIIB) [2]; [9]): 31 ± 4.9 µM | EC50 (in vitro): > 1500 µM
